Assay results: patent publication US20140045779A1, “COMPOUNDS CONTAINING AN ALICYCLIE STRUCTURE AND ANTI-TUMOR APPLICATION” (priority 2011, published 2014)
≈ marks a conversion by molar mass, not a printed value. Like-named read-outs stand apart in the source and are kept apart here.

Legend:
[1] = tested on: mouse ascites sarcoma S180; assay: Efficacy studies of anti-tumor in vivo, S180 sarcoma in Kunming mice; conditions: for Difference from the control group in S180 sarcoma growth: Kunming mice, S180, p<0.05; for Growth Inhibition of S180 sarcoma, inhibition rate: mouse, in vivo, ip
[2] = tested on: MCF7 cells (breast cancer cells); assay: In vitro anti-cancer cell experiment (MTT), MCF7; conditions: Homo sapiens
[3] = MCF7, 48 h, read-out: Growth Inhibition of cell line IC50, MCF7
[4] = MCF7, read-out: IC50, anti-proliferative effect on MCF7 cells

IC50 [2, 3] [µg/mL] | IC50 [2, 4] [µg/mL] | Compound | Difference from the control group in S180 sarcoma growth [1] | Growth Inhibition of S180 sarcoma, inhibition rate [1] [%]
– | – | O=C(CN1C(=O)C2C3CC(O)C(O3)C2C1=O)NC12CC3CC(CN(C3)C1)C2 (stereo not shown) [Example 7, N-((1r,3r)-1-azaadamantan-3-yl)-2-(5-hydroxy-1,3-dioxohexahydro-1H-4,7-epoxyisoindol-2(3H)-yl)acetamide] | significant difference | –
– | – | O=C(CN1C(=O)c2ccc([N+](=O)[O-])cc2C1=O)NC12CC3CC(CN(C3)C1)C2 [Example 8, N-((1r,3r,5R,7S)-1-azaadamantan-3-yl)-2-(5-nitro-1,3-dioxoisoindolin-2-yl)acetamide] | significant difference | –
– | – | Nc1ccc2c(c1)C(=O)N(CC(=O)NC13CC4CC(CN(C4)C1)C3)C2=O [Example 9, N-((1r,3r,5R,7S)-1-azaadamantan-3-yl)-2-(5-amino-1,3-dioxoisoindolin-2-yl)acetamide] | significant difference | –
– | – | O=C(Cn1cnc(-c2ccccc2)c1-c1ccccc1)NC12CC3CC(CC(C3)C1)C2 [Example 11, N-((1s,3s)-adamantan-1-yl)-2-(4,5-diphenyl-1H-imidazol-1-yl)acetamide] | significant difference | –
44.2 (≈ 291 µM) | 44.2 (≈ 291 µM) | O=C1C2CC3CC(C2)OC1C3 (stereo not shown) [Example 43, 2-oxaadamantan-4-one] | – | –
56.3 (≈ 365 µM) | 56.3 (≈ 365 µM) | OC12CC3CC(CC(C3)O1)C2 [Example 47, 2-oxaadamantan-1-ol] | – | –
6.94 (≈ 14.3 µM) | 6.94 (≈ 14.3 µM) | COc1cc(C23CN4CN(C2)CC(c2cc(OC)c(OC)c(OC)c2)(C4)C3=O)cc(OC)c1OC [Example 62, (1r,3r,5r,7r)-5,7-bis(3,4,5-trimethoxyphenyl)-1,3-diazaadamantan-6-one] | – | –
– | – | COC(=O)C12C3CC4CC5C3CC(CC5C1(C(=O)OC)N4C)N2C [Example 107, dimethanol decahydro-2,8,4,6-(cyclobutyl[1,2,3,4]dimethyl) naphthalene-2,4,4a,6-dicarboxylate] | significant difference | –
– | – | (1R,3R,5S,7S,Z)-1-azaadamantan-4- one oxime [Example 55] | – | 32
– | – | (1R,3S,5R,7S,Z)-1-hydroxy-3-methyl-2- oxaadamantan-6-one oxime [Example 74] | – | 20

Compound | IC50 [2, 3] [µg/mL] | IC50 [2, 4] [µg/mL] | Difference from the control group in S180 sarcoma growth [1] | Growth Inhibition of S180 sarcoma, inhibition rate [1] [%]
CCCCCNC12CN3CN(CN(C3)C1)C2 [Example 68, (1s,3s,5s)-N-pentyl-1,3,5-triazaadamantan-7-amine] | 2.28 (≈ 10.2 µM) | 2.28 (≈ 10.2 µM) | significant difference | –
